Data from PubChem BioAssay (NCI).
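Method: 48-hour compound exposure of cells in 96-well plates, five concentrations, linear interpolation of endpoints. GI50 marks 50% less growth. TGI is the concentration that stops growth completely.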

Key:
Test in all cases: DTP human tumour cell line panel, 48 h
SNB-19 CNS = test system: SNB-19 CNS
HCT-15 colon = test system: HCT-15 colon
HT29 colon = test system: HT29 colon
SN12C renal = test system: SN12C renal
COLO 205 colon = test system: COLO 205 colon
MDA-MB-435 = test system: MDA-MB-435
IGROV1 ovarian = test system: IGROV1 ovarian
M14 melanoma = test system: M14 melanoma
OVCAR-3 ovarian = test system: OVCAR-3 ovarian
SF-295 CNS = test system: SF-295 CNS

Q: CC(C)(C(=O)NN)c1ccccc1 was tested. Which TGI (SNB-19 CNS) did it give?
A: > 100 µM

Q: What about the TGI (HCT-15 colon) of the same compound?
A: > 100 µM

Q: And the TGI (HT29 colon)?
A: > 100 µM

Q: And the TGI (SN12C renal)?
A: > 100 µM

Q: What about the TGI (COLO 205 colon) of the same compound?
A: > 100 µM

Q: And the TGI (MDA-MB-435)?
A: > 100 µM

Q: And the TGI (IGROV1 ovarian)?
A: > 100 µM

Q: And the TGI (M14 melanoma)?
A: > 100 µM

Q: And the TGI (OVCAR-3 ovarian)?
A: > 100 µM

Q: And the TGI (SF-295 CNS)?
A: > 100 µM

Q: How did the TGI (SNB-19 CNS) turn out when CN(C)c1ccc2c(NCCCCCCNc3ccnc4cc(N(C)C)ccc34)ccnc2c1 was run?
A: 16.4 µM

Q: What about the TGI (HCT-15 colon) of the same compound?
A: > 100 µM

Q: And the TGI (HT29 colon)?
A: > 100 µM

Q: And the TGI (SN12C renal)?
A: > 100 µM

Q: And the TGI (M14 melanoma)?
A: > 100 µM

Q: What about the TGI (OVCAR-3 ovarian) of the same compound?
A: 27.7 µM

Q: What about the TGI (SF-295 CNS) of the same compound?
A: 40.3 µM

Q: What does the source list for CCCN1C(=O)/C(=c2\sc3n(c2=O)C2C(NN=3)N(CC)C(=O)N2CC)c2ccccc21 (centres undefined)?
A: GI50 (SNB-19 CNS): 0.765 µM; TGI (SNB-19 CNS): 23.8 µM; GI50 (HCT-15 colon): 0.416 µM; TGI (HCT-15 colon): > 52.4 µM; GI50 (HT29 colon): 0.347 µM; TGI (HT29 colon): 12.2 µM; GI50 (SN12C renal): 1.26 µM; TGI (SN12C renal): 20.1 µM; GI50 (COLO 205 colon): 0.665 µM; TGI (COLO 205 colon): 10.4 µM; GI50 (MDA-MB-435): 0.196 µM; TGI (MDA-MB-435): 0.445 µM; GI50 (IGROV1 ovarian): 0.876 µM; TGI (IGROV1 ovarian): 14.1 µM; GI50 (M14 melanoma): 0.413 µM; TGI (M14 melanoma): 12.4 µM; GI50 (OVCAR-3 ovarian): 0.289 µM; TGI (OVCAR-3 ovarian): 0.8 µM; GI50 (SF-295 CNS): 0.409 µM; TGI (SF-295 CNS): 10.7 µM

Q: For CSc1nnc(CCSc2ccnc3c(C(F)(F)F)cccc23)o1, which GI50 (SNB-19 CNS) is on record?
A: 61.6 µM

Q: And the TGI (SNB-19 CNS)?
A: > 100 µM

Q: What about the GI50 (HCT-15 colon) of the same compound?
A: > 100 µM

Q: What about the TGI (HCT-15 colon) of the same compound?
A: > 100 µM

Q: And the GI50 (HT29 colon)?
A: > 100 µM

Q: What about the TGI (HT29 colon) of the same compound?
A: > 100 µM

Q: And the GI50 (SN12C renal)?
A: > 100 µM

Q: And the TGI (SN12C renal)?
A: > 100 µM

Q: And the GI50 (COLO 205 colon)?
A: > 100 µM

Q: What about the TGI (COLO 205 colon) of the same compound?
A: > 100 µM

Q: What about the GI50 (MDA-MB-435) of the same compound?
A: > 100 µM

Q: What about the TGI (MDA-MB-435) of the same compound?
A: > 100 µM

Q: And the GI50 (IGROV1 ovarian)?
A: 83.2 µM

Q: What about the TGI (IGROV1 ovarian) of the same compound?
A: > 100 µM

Q: And the GI50 (OVCAR-3 ovarian)?
A: 91.9 µM

Q: What about the TGI (OVCAR-3 ovarian) of the same compound?
A: > 100 µM

Q: And the GI50 (SF-295 CNS)?
A: 59.8 µM

Q: And the TGI (SF-295 CNS)?
A: > 100 µM

Q: With O=C(NCCCCCCNC(=O)c1cccc2ccccc12)c1cccc2ccccc12 as the compound, how does the TGI (HCT-15 colon) read?
A: > 100 µM

Q: And the TGI (HT29 colon)?
A: > 100 µM

Q: And the TGI (SN12C renal)?
A: > 100 µM

Q: What about the TGI (COLO 205 colon) of the same compound?
A: 3.4 µM

Q: And the TGI (IGROV1 ovarian)?
A: > 100 µM

Q: And the TGI (M14 melanoma)?
A: > 100 µM

Q: What about the TGI (OVCAR-3 ovarian) of the same compound?
A: 71 µM

Q: What about the TGI (SF-295 CNS) of the same compound?
A: 3.4 µM

Q: C=C1C(=O)OC2CC3(C)C=CC(=O)C(=C)C3CC12 (centres undefined) was tested. Which TGI (SNB-19 CNS) did it give?
A: 21.3 µM

Q: And the TGI (HCT-15 colon)?
A: 4.09 µM

Q: And the TGI (HT29 colon)?
A: 3.45 µM

Q: What about the TGI (SN12C renal) of the same compound?
A: 3.46 µM

Q: What about the TGI (COLO 205 colon) of the same compound?
A: 3.05 µM

Q: And the TGI (IGROV1 ovarian)?
A: 5.04 µM

Q: What about the TGI (M14 melanoma) of the same compound?
A: 2.86 µM

Q: And the TGI (OVCAR-3 ovarian)?
A: 7.19 µM

Q: And the TGI (SF-295 CNS)?
A: 26.8 µM

Q: For O=C(CC1Sc2ccccc2NC1=O)Nc1cc(Cl)ccc1Cl (centres undefined), which TGI (SNB-19 CNS) is on record?
A: > 100 µM

Q: And the TGI (HCT-15 colon)?
A: > 100 µM

Q: What about the TGI (HT29 colon) of the same compound?
A: > 100 µM

Q: What about the TGI (SN12C renal) of the same compound?
A: > 100 µM

Q: What about the TGI (IGROV1 ovarian) of the same compound?
A: > 100 µM

Q: And the TGI (M14 melanoma)?
A: > 100 µM

Q: What about the TGI (OVCAR-3 ovarian) of the same compound?
A: > 100 µM

Q: And the TGI (SF-295 CNS)?
A: > 100 µM

Q: Which TGI (SNB-19 CNS) does the source give for O=C(CCn1[nH]c(=O)c(Cl)c(Cl)c1=O)NOCCCc1ccccc1 here?
A: > 100 µM

Q: What about the TGI (HCT-15 colon) of the same compound?
A: > 100 µM

Q: What about the TGI (HT29 colon) of the same compound?
A: > 100 µM

Q: And the TGI (SN12C renal)?
A: > 100 µM

Q: What about the TGI (IGROV1 ovarian) of the same compound?
A: > 100 µM

Q: And the TGI (M14 melanoma)?
A: > 100 µM

Q: What about the TGI (OVCAR-3 ovarian) of the same compound?
A: > 100 µM

Q: What about the TGI (SF-295 CNS) of the same compound?
A: > 100 µM

Q: With COC(=O)CCC(=O)N1Cc2cc(C)ccc2N(C(=O)CCC(=O)OC)Cc2cc(C)ccc21 as the compound, how does the TGI (HCT-15 colon) read?
A: > 100 µM

Q: And the TGI (HT29 colon)?
A: > 100 µM

Q: What about the TGI (SN12C renal) of the same compound?
A: > 100 µM

Q: What about the TGI (COLO 205 colon) of the same compound?
A: > 100 µM

Q: What about the TGI (IGROV1 ovarian) of the same compound?
A: > 100 µM

Q: And the TGI (M14 melanoma)?
A: > 100 µM

Q: And the TGI (OVCAR-3 ovarian)?
A: > 100 µM

Q: What about the TGI (SF-295 CNS) of the same compound?
A: > 100 µM

Q: CC[C@H](Nc1nc(N)nc(C)c1C#N)c1nc2cccc(CN(C)c3ncc(C(=O)NO)cn3)c2c(=O)n1-c1ccccc1 was tested. Which GI50 (SNB-19 CNS) did it give?
A: 0.827 µM

Q: And the TGI (SNB-19 CNS)?
A: 6.4 µM

Q: And the GI50 (HCT-15 colon)?
A: 2.11 µM

Q: And the TGI (HCT-15 colon)?
A: 12 µM

Q: And the GI50 (HT29 colon)?
A: 0.8 µM

Q: What about the TGI (HT29 colon) of the same compound?
A: > 17.6 µM

Q: What about the GI50 (SN12C renal) of the same compound?
A: 1.11 µM

Q: And the TGI (SN12C renal)?
A: 6.03 µM

Q: What about the GI50 (MDA-MB-435) of the same compound?
A: 0.617 µM

Q: And the TGI (MDA-MB-435)?
A: 2.26 µM

Q: What about the GI50 (IGROV1 ovarian) of the same compound?
A: 0.569 µM

Q: What about the TGI (IGROV1 ovarian) of the same compound?
A: 2.28 µM

Q: What about the GI50 (M14 melanoma) of the same compound?
A: 1.08 µM

Q: And the TGI (M14 melanoma)?
A: 7.01 µM

Q: What about the GI50 (OVCAR-3 ovarian) of the same compound?
A: 0.761 µM

Q: What about the TGI (OVCAR-3 ovarian) of the same compound?
A: 2.28 µM

Q: And the GI50 (SF-295 CNS)?
A: 1.28 µM

Q: And the TGI (SF-295 CNS)?
A: 3.81 µM
